Like-named read-outs stand apart in the source and are kept apart here.
Key:
[1] = system: paCaMKII T286A movement to synapses and spine growth; experiment: Photoactivation of paCaMKII T286A in hippocampal neurons (structural LTP); format: cell-based; conditions: AS283 10 μM; AS397
Excerpt: In this Example, two sets of pharmacogenetic tools were used in combination with the photoactivable paCaMKII to test whether structural CaMKII functions are not only the necessary but also the sufficient CaMKII functions in LTP. Specifically, in one exemplary method, hippocampal neurons were examined for sLTP (e.g., the LTP-associated growth of dendritic spines) in response to direct photoactivation of paCaMKII without any other stimulation that could trigger additional signaling pathways. […] In both cases, suppressing enzymatic CaMKII activity while allowing or enhancing GluN2B binding enabled induction of structural LTP. […]
paCaMKII stimulation in hippocampal neurons. […] Neurons were then imaged 15 minutes after stimulation and assessed for CaMKII synaptic enrichment and dendritic spine growth.
Image analysis of hippocampal neurons. […] 2D maximum intensity projection images were then generated and analyzed using a custom-build program in ImageJ. The program utilizes combinatorial thresholding to mask regions of the cell that contain high intensity PSD-95 puncta (the post-synaptic side of excitatory synapses in dendritic spines) and regions of the dendritic shaft that contain no fluorescence intensity of PSD-95. […] Spine growth was assessed by measuring the changes in mCherry cell fill fluorescence intensity within dendritic spine ROIs (F/F0).

[2] = target: purified CaMKIIα (Homo sapiens, UniProt Q9UQM7); experiment: In vitro kinase reactions with purified CaMKIIα (GluA1 S831, T286, GluN2B S1303 phosphorylation); format: biochemical; design: made in house; host or cells: baculovirus/Sf9 (CaMKIIα); BL21 bacteria (CaM); conditions: for Ki: 1 mM ATP, 30° C., AS283 0.41-10 μM, Cheng-Prusoff with Km ATP 33.3 μM
Experimental: In a series of exemplary methods, an in vitro kinase assay was used where purified CaMKIIα is incubated at 30° C. with GST-GluA1 alongside ATP. CaMKIIα normally phosphorylates S831 on the GluA1 subunit and this phosphorylation can be measured as a readout of CaMKIIα enzymatic activity (see e.g., FIG. 8B). […] In another exemplary method, binding of purified CaMKIIα to immobilized GST-GluN2B-c was induced by Ca^2+/CaM in the presence of a vehicle (none), 4 mM ADP or with […] AS105. […] At the same time, two exemplary methods were performed to observe ionomycin or chemical LTP (cLTP) induced co-localization of CaMKII and GluN2B either in HEK293 cells co-expressing GFP-CaMKII and mCherry-2BC or dissociated rat hippocampal cultures expressing GFP-CaMKII and mCh-PSD95 intrabody. HEK293 cells, incubating with vehicle or 10 μM AS105, were subjected to ionomycin. Hippocampal cultures, also incubating with either vehicle or 10 μM AS105, were treated with a chemical LTP (cLTP) stimulus (e.g., 100 μM glutamate, 10 μM glycine for 45 seconds). Confocal microscopy images were taken before and after each stimulus.
Therefore, in another exemplary method, the ability of AS283 to selective inhibit CAMKII enzymatic activity without interfering with its binding to GluN2B was tested. In a first method, in vitro kinase reactions were performed at 30° C. in 1 mM ATP measuring purified CaMKIIα phosphorylation of GST-GluA1 S831 with varying concentrations of AS283 (0.41-10 μM).
One possible mechanism by which AS283 could enhance GluN2B binding more than ATP is by suppressing CaMKII-mediated phosphorylation of GluN2B at S1303, as this phosphorylation within the CaMKII binding site on GluN2B reduces CaMKII binding.
In vitro phosphorylation assays. CaMKII-mediated phosphorylation of GluA1 S831 was measured by in vitro kinase reaction with purified GST-GluA1 c-terminal tail. Reactions contained 40 nM CaMKII (or water for negative controls), 1 μM GST-GluA1, 50 mM PIPES pH 7.1, 2 mM CaCl2), 10 mM MgCl2, 1 μM calmodulin, 1-4 mM ATP, and 1 PM of okadaic acid. Reactions were done at 30° C. for 20 s; reactions were stopped by adding SDS-loading buffer and incubation in a boiling water bath for 5 min. GST, phospho-S831, CaMKII, phospho-T286, or phospho-S1303 were detected in the samples by immunoblot analysis.
Km and Ki determination. The inhibition constant Ki was calculated using the Cheng-Prusoff equation for competitive inhibition: Ki=IC50/(1+[ATP]/Km).

[3] = system: synaptic localization of CaMKII F89G / K42M; experiment: Synaptic localization of GFP-CaMKII F89G or K42M mutants in rat hippocampal cultures, basal and cLTP; format: cell-based; conditions: 10 μM NM-PP1, basal and cLTP
Experimental: This conclusion also predicts that the LTP stimulus-induced movement of CaMKII to excitatory synapses should be (i) impaired in the CaMKII F89G mutant; but (ii) normalized by pharmacogenetic rescue with NM-PP1. Indeed, both predictions were observed experimentally (FIGS. 4D-4E).
Chemical LTP stimulation. Chemical LTP (CL TP) was induced with 100 μM glutamate and 10 μM glycine for 45 seconds. Treatments were followed by washout in 5 volumes of fresh ACSF. For biochemistry experiments, neurons were treated with 1 μM TTX to silence neurons prior to treatment with cLTP.
Image analysis of hippocampal neurons. […] 2D maximum intensity projection images were then generated and analyzed using a custom-build program in ImageJ. The program utilizes combinatorial thresholding to mask regions of the cell that contain high intensity PSD-95 puncta (the post-synaptic side of excitatory synapses in dendritic spines) and regions of the dendritic shaft that contain no fluorescence intensity of PSD-95. As a measure of synaptic enrichment, the ratio of mean CaMKII fluorescence intensity of the PSD-95 mask to the mean CaMKII fluorescence intensity in the dendritic shaft mask is measured. Spine growth was assessed by measuring the changes in mCherry cell fill fluorescence intensity within dendritic spine ROIs (F/F0).

SMILES	CaMKII movement to synapses after photoactivation of paCaMKII T286A [1]	spine growth (structural LTP) after photoactivation of paCaMKII T286A [1]	Ki ([2]; read-out: apparent Ki, autophosphorylation of T286 (pT286))	Ki ([2]; read-out: apparent Ki, phosphorylation of GluA1 S831 (pS831))	CaMKII-mediated S1303 phosphorylation of wild type GluN2B C-terminus ([2]; purified CaMKII and GST-2BC)	impaired synaptic localization of CaMKII F89G mutant [3]	effect on pT286 of CaMKII wildtype ([2]; in vitro kinase reaction in ATP)
NCCNc1cccc(-c2ccnc3[nH]c4ccccc4c23)c1 [AS283]	robust CaMKII movement	spine growth	71 nM	17 nM	inhibited the CaMKII-mediated S1303 phosphorylation	–	–
CC(C)(C)n1nc(Cc2cccc3ccccc23)c2c(N)ncnc21 [NM-PP1]	–	–	–	–	–	rescued	did not affect pT286

— patent US20260263429A1, “INHIBITORS OF CA 2+/CALMODULIN-DEPENDENT PROTEIN KINASE II (CAMKII) THAT DO NOT INHIBIT LONG-TERM POTENTIATION (LTP) INDUCTION AND THERAPEUTIC USES THEREOF” (The Regents of the University of Colorado, A Body Corporate, priority 2023, published 2026)
